Reference: PMC12728982, “Multichiral Half-Sandwich Ru(II) and Os(II) Anticancer Complexes Containing a Glutathione Synthesis Inhibitor” (Organometallics, 2025)
“Also recorded” adds a separate entry of the source.

How the values were obtained:
[1] = test system: A549 lung carcinoma cells; assay: Antiproliferative activity, SRB assay; assay type: cell-based, human
Protocol: (§1) The antiproliferative activity against human A549 lung, IGROV-1 ovarian, and HeLa cervical cancer cell lines and MRC5 normal lung fibroblasts was determined by the sulforhodamine B (SRB) assay. […] IGROV-1 is known to be cisplatin-sensitive and subject to hypermutation.
(§2) 2.8 Mammalian cell culture
(§3) The human ovarian cancer cell line, IGROV-1; the human cervical cancer cell line, HeLa; the human […]; and the human non-cancerous lung fibroblast cell line, MRC5 were cultured in DMEM supplemented with 10% FBS and 100 units/mL of penicillin and 100 µg/mL of streptomycin (1x pen/strep). All cell lines were incubated at 310 K with 5% CO2 and 95% humidity for routine maintenance and during drug treatment.
(§4) 2.9 Sulforhodamine (SRB) cytotoxicity assay
(§5) Cells were seeded at 5 × 10^3 cells per well and incubated at 310 K for 48 h. Stock solutions (200 µM) of the complexes were prepared by dissolving the compound in 5% (v/v) DMSO followed by dilution with DMEM and serial dilutions with DMEM were prepared (0.1 µM-200 The cells were exposed to the drug for 24 h. The drug was then removed, and cells were allowed to recover for 72 h, in drug-free media. Cell viability was then determined by the SRB colorimetric assay. The solubilised dye absorbance was analysed on a microplate reader (Thermo Scientific Multiskan FC with Scanit software 4.1) at 470 nm. Data were normalized using Microsoft Excel, and dose-response curves fitted using Origin 2016. The IC50 values

[2] = test system: IGROV-1 ovarian carcinoma cells; assay: Antiproliferative activity, SRB assay; assay type: cell-based, human
Protocol: as §1, §2, §3, §4, §5

[3] = test system: MRC-5 normal lung fibroblasts; assay: Antiproliferative activity, SRB assay; assay type: cell-based, human
Protocol: as §1, §2, §3, §4, §5

[4] = test system: IGROV-1 human ovarian cancer cells; assay: Cell cycle arrest by flow cytometry (PI); assay type: cell-based; conditions: IGROV-1, 100 μM, 24 h treatment, vs untreated
Protocol: 2 Effect of Os/Ru-LBSO and glycine complexes at 50 or 100 μM on the phases of the cell cycle of IGROV-1 human ovarian cancer cells compared with untreated (control) cells. Percentage of cells in G1 (black bar, cell growth), S (gray, DNA synthesis), G2/M, (white, growth/mitosis) as determined by flow cytometry after 24 h treatment with complexes. […] Standard deviations calculated for N = 3 *p-value <0.05 comparing to untreated sample.
as §2
as §3, with “treatment. […]” for “treatment.”
IGROV-1 cells (1 x 10^6 cells per well) were seeded in a 6-well plate and incubated for 24 h at 310 K. Stock solutions (200 µM) of the complexes were prepared by dissolving the compound in 5% (v/v) DMSO followed by dilution with DMEM and then diluted to desired concentrations. All complexes (50 µM and 100 µM) were added to the wells and incubated for 24 h. Cell pellets were collected using 0.25% trypsin and centrifuged (500 x g, 5 mins at 4 °C). Then washed in PBS and fixed with 100% ice-cold ethanol for 20 min on ice. The ethanol […]
(§6) was aspirated, cells washed in ice-cold PBS and then stained with 0.2 mg/mL RNase, 0.05 mg/mL propidium iodide (PI) in PBS for 25 min in the dark and on ice. Excess dye was removed, and cells were re-suspended in PBS. Samples were analysed by flow cytometry using the BD

[5] = test system: IGROV-1 human ovarian cancer cells; assay: Apoptosis assay, annexin V and PI, flow cytometry; assay type: cell-based; conditions: IGROV-1, 50 or 100 μM, 24 h
Protocol: Apoptosis assays using annexin V and PI as markers were carried out to investigate possible modes of cell death. For the clinical drug cisplatin, apoptosis is the major mode of cell death. […] Other mechanisms of cell death such as ferroptosis could be investigated in future work. […]
as §6, with “BD FACSMelody™ Cell Sorter (R653880001) and data analysis on FlowJo™ v10 Software (BD Life […]” for “BD”
IGROV-1 cells (1 x 106) were seeded in a 6-well plate and incubated for 24 h at 310 K. Stock solutions (200 µM) of the complexes were prepared by dissolving the compound in 5% (v/v) DMSO followed by dilution with DMEM and then diluted to desired concentrations. All complexes (50 µM and 100 µM) were added to the wells and incubated for 24 h. […] Samples were analysed by flow cytometry using the BD FACSMelody™ Cell Sorter (R653880001) and data analysis on FlowJo™ v10 Software (BD Life Sciences).9 […]
Percentage of IGROV -1 cancer cells in non -apoptotic, apoptotic (early and late) or necrotic phases determined by flow cytometry after 24 h treatment with Os/Ru L -BSO and glycine complexes. […] Standard deviations calculated for N=3. […]

[6] = Aqueous stability / hydrolysis monitored by 1H NMR; assay type: physicochemical; conditions: 3:7 v/v methanol-d4:D2O, 310 K, 36 h, then excess NaCl (130 mM) 24 h

IC50 ([1]; A549, SRB assay, 24 h treatment, 72 h recovery): > 200 µM | IC50 ([2]; IGROV-1, SRB assay, 24 h treatment, 72 h recovery): 14.6 ± 0.5 µM | Hydrolysis [6]: does not readily hydrolyze
Substance: [(p-cymene)Os(L-BSO)Cl] [Os-LBSO]
Activity toward lung cancer cells ([1]; A549, SRB): inactive | Activity against IGROV-1 ([2]; IGROV-1, SRB): active | Activity toward normal lung cells ([3]; MRC-5, SRB): highly active; also recorded: some activity | IC50 ([3]; MRC-5, SRB assay, 24 h treatment, 72 h recovery): 11.8 ± 0.6 µM | G1 arrest (percentage of cells in G1) [4]: significantly increased | Apoptosis / mode of cell death vs untreated cells [5]: no significant differences
